Measurements taken from patent US20250188030A1, “Biphenyl and Phenylpyridine Compounds” (Pfizer Inc., priority 2023, published 2025).
Read-outs that look alike come from different tables or passages of the source.

Assays:
H3K9AC (HT1080 cells) = test: H3K9AC Sandwich ELISA Assay in HT1080 cells (KAT2A primary cell-based screening assay); set-up: species or system Human
Summary of the method: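 HT1080 fibrosarcoma cells seeded 16 h, then treated 24 h at 37 °C with 10-point 1:3 compound dilutions (top 10 µM final, 0.1% DMSO). Acid lysates neutralized with butyrate/PMSF; H3K9ac measured by total-H3-capture sandwich ELISA with luminescent HRP readout, IC50 by four-parameter fit.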

KAT2A = KAT2A (Homo sapiens (Human), UniProt Q92830); test: KAT2A acetyltransferase biochemical assay (RapidFire mass spectrometry, AcCoA to CoA)
[1] = Homo sapiens, HT-1080, H3K9AC sandwich ELISA
[2] = read-out: KAT2A Ki at 1 μM AcCoA, 5 μM H3 1-21 peptide, 0.5 nM KAT2A, 90-minute reaction

Sequence of KAT2A (Q92830 whole entry): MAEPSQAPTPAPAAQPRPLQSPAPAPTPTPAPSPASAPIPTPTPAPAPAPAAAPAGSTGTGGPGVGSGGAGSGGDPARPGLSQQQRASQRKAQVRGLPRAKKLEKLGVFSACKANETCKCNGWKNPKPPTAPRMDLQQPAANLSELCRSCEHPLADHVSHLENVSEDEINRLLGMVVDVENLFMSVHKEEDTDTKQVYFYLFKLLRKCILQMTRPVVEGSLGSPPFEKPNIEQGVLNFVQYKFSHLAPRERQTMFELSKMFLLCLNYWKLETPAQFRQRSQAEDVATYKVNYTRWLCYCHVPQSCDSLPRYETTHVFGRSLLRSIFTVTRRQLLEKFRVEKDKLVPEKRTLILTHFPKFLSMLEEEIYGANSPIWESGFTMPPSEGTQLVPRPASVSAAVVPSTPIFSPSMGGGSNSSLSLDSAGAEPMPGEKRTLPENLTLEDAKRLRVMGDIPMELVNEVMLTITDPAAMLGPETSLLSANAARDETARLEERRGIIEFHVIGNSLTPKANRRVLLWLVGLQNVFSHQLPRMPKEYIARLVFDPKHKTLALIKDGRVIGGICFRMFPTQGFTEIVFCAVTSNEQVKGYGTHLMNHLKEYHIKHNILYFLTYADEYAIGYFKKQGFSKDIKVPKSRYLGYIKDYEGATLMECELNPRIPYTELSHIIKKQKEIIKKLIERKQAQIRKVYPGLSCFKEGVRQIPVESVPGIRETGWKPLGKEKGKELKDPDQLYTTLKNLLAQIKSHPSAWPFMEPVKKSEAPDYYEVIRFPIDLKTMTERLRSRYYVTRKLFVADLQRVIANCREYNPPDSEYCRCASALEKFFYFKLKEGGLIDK

## CC(C)(C(=O)NS(=O)(=O)N1CC(F)C1)c1ccc(O[C@@H]2CC[C@@H](NC(=O)[C@]3(F)CNC4(CCC4)C3)C2)c(-c2cccc(F)c2C2CCC2)c1 (single isomer, unassigned) [Example B6]
H3K9AC (HT1080 cells); [1]
  IC50: > 1000 nM
KAT2A; [2]
  Ki: 746 nM

## CC(C)c1c(F)cccc1-c1cc(CC(=O)O)ccc1O[C@@H]1CC[C@@H](NC(=O)[C@@H]2CC(C)(C)CN2C)C1 [Example D12, [3′-fluoro-2′-(propan-2-yl)-6-({(1R,3R)-3-[(1,4,4-trimethyl-L-prolyl)amino]cyclopentyl}oxy)[1,1′-biphenyl]-3-yl]acetic acid]
H3K9AC (HT1080 cells); [1]
  IC50: 66.6 nM
KAT2A; [2]
  Ki: 12.4 nM

## CN1CC(C)(C)C[C@H]1C(=O)N[C@H]1C[C@H](Oc2ccc(C(C)(C)C(=O)O)cc2-c2cccc(F)c2C2CCC2)C[C@H]1O [Example K1, 2-[2′-cyclobutyl-3′-fluoro-6-({(1S,3R,4S)-3-hydroxy-4-[(1,4,4-trimethyl-L-prolyl)amino]cyclopentyl}oxy)[1,1′-biphenyl]-3-yl]-2-methylpropanoic acid]
H3K9AC (HT1080 cells); [1]
  IC50: 5.19 nM
KAT2A; KAT2A Ki at 1 μM AcCoA, 5 μM H3 1-21 peptide, 0.5 nM KAT2A, 90-minute reaction
  Ki: 0.15 nM

## CCc1c(F)cccc1-c1cc([C@@H](C)C(=O)NS(=O)(=O)C2(C)CC2)ccc1O[C@@H]1CC[C@@H](NC(=O)[C@@]2(F)CNC3(CCCC3)C2)C1 (single isomer, unassigned) [Example C85]
H3K9AC (HT1080 cells); H3K9AC sandwich ELISA
  IC50: 6.1 nM
KAT2A; [2]
  Ki: 0.17 nM

## CC1(C)C[C@@](F)(C(=O)N[C@@H]2CC[C@@H](Oc3ccc(C(=O)O)cc3-c3cccc(F)c3C3CCC3)C2)CN1 (single isomer, unassigned) [Example A13]
H3K9AC (HT1080 cells); H3K9AC sandwich ELISA
  IC50: > 1000 nM
KAT2A; [2]
  Ki: 96 nM

## CC(C)c1c(F)cccc1-c1cc(C(=O)O)ccc1O[C@@H]1CC[C@@H](NC(=O)[C@@H]2CC(C)(C)CN2C)C1 [Example D7, 3′-fluoro-2′-(propan-2-yl)-6-({(1R,3R)-3-[(1,4,4-trimethyl-L-prolyl)amino]cyclopentyl}oxy)[1,1′-biphenyl]-3-carboxylic acid]
H3K9AC (HT1080 cells); [1]
  IC50: 45.1 nM
KAT2A; [2]
  Ki: 3.57 nM

## CC(C)c1ccccc1-c1cc(CC(=O)NS(=O)(=O)C(C)C)ccc1O[C@@H]1CC[C@@H](NC(=O)[C@@]2(F)CNCC(C)(C)C2)C1 (single isomer, unassigned) [Example C74]
H3K9AC (HT1080 cells); H3K9AC sandwich ELISA
  IC50: > 1000 nM
KAT2A; [2]
  Ki: > 99.9 nM

## CN1CC(C)(C)C[C@H]1C(=O)N[C@@H]1CC[C@@H](Oc2ccc(C(C)(C)c3noc(=O)[nH]3)cc2-c2cccc(F)c2C2CCC2)C1 [Example D17, N-[(1R,3R)-3-({2′-cyclobutyl-3′-fluoro-5-[2-(5-oxo-4,5-dihydro-1,2,4-oxadiazol-3-yl)propan-2-yl][1,1′-biphenyl]-2-yl}oxy)cyclopentyl]-1,4,4-trimethyl-L-prolinamide]
H3K9AC (HT1080 cells); [1]
  IC50: 14.4 nM
KAT2A; [2]
  Ki: 2.64 nM

## CCS(=O)(=O)NC(=O)[C@H](C)c1ccc(O[C@@H]2CC[C@@H](NC(=O)[C@@]3(F)CNC4(CCC4)C3)C2)c(-c2cccc(F)c2C2CCC2)c1 (single isomer, unassigned) [Example C91]
H3K9AC (HT1080 cells); H3K9AC sandwich ELISA
  IC50: 5.4 nM
KAT2A; [2]
  Ki: 0.06 nM

## CC(C)c1ccccc1-c1cc(CC(=O)NS(=O)(=O)C2(C)CC2)ccc1O[C@@H]1CC[C@@H](NC(=O)[C@@]2(F)CNCC(C)(C)C2)C1 (single isomer, unassigned) [Example C80]
H3K9AC (HT1080 cells); H3K9AC sandwich ELISA
  IC50: 2.6 nM
KAT2A; [2]
  Ki: 0.11 nM

## CC(C)c1ccccc1-c1cc(CC(=O)NS(=O)(=O)C(C)C)ccc1O[C@@H]1CC[C@@H](NC(=O)[C@@]2(F)CNCC(C)(C)C2)C1 (single isomer, unassigned) [Example C75]
H3K9AC (HT1080 cells); H3K9AC sandwich ELISA
  IC50: 4.5 nM
KAT2A; [2]
  Ki: 0.17 nM

## O=C(O)c1ccc(O[C@@H]2CC[C@@H](NC(=O)[C@@]3(F)CNC4(CCCC4)C3)C2)c(-c2cccc(F)c2C2CCC2)c1 (single isomer, unassigned) [Example A35]
H3K9AC (HT1080 cells); H3K9AC sandwich ELISA
  IC50: > 1000 nM
KAT2A; [2]
  Ki: > 99.9 nM

## Cn1cc(-c2ccc(O[C@@H]3CC[C@@H](NC(=O)[C@]4(F)CNC5(CCC5)C4)C3)c(-c3cccc(F)c3C3CCC3)c2)c(C(C)(C)C(=O)O)n1 (single isomer, unassigned) [Example J6]
H3K9AC (HT1080 cells); H3K9AC sandwich ELISA
  IC50: 746 nM
KAT2A; [2]
  Ki: > 1000 nM
